Patent US9708314B2, “Heterocyclic amide compound” (NISSAN CHEMICAL INDUSTRIES, LTD., priority 2013, dated 2017)

Tests used:
Type in all cases: in vivo
[1] = system: Beta vulgaris ssp. vulgaris; experiment: Test Example 4: effect on crop by application to foliage (diluvial soil, plastic box); settings: for f (Beta vulgaris ssp. vulgaris) effect on crop: application to foliage, application herbicide amount 320 g/ha
Summary of the method: (§1)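 Plants were grown in sterilized diluvial soil in a greenhouse at 25-30° C for 14 days, then sprayed on stems and leaves with water-diluted emulsion formulation at set rates in g/ha. Weed control and crop injury were scored 3 weeks after treatment on a 0-5 herbicidal-ratio scale, from 0 (≤5%) to 5 (≥90%).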

Zea mays = experiment: as above; settings: for b (Zea mays) effect on crop: application to foliage, application herbicide amount 320 g/ha
Summary of the method: as §1

Glycine max = experiment: as above; settings: for c (Glycine max) effect on crop: application to foliage, application herbicide amount 320 g/ha
Summary of the method: as §1

[2] = system: directly sowed Oryza sativa; experiment: as above; settings: for d (directly sowed Oryza sativa) effect on crop: application to foliage, application herbicide amount 320 g/ha
Summary of the method: as §1

Brassica campestris L. = experiment: as above; settings: for g (Brassica campestris L.) effect on crop: application to foliage, application herbicide amount 320 g/ha
Summary of the method: as §1

Triticum aestivum = experiment: as above; settings: for e (Triticum aestivum) effect on crop: application to foliage, application herbicide amount 320 g/ha
Summary of the method: as §1

[3] = system: Echinochloa oryzacola Vasing.; experiment: Test Example 2: herbicidal activity, application during weed generation in submerged conditions; settings: Eighteenth Table; application herbicide amount 320 g/ha
Summary of the method: (§2)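 Mixed sowings in flooded alluvial soil (4 cm water), greenhouse 25-30 °C; emulsifiable concentrate diluted in water applied to the water surface at the 1-2 leaf stage, rate in g/ha. Effect scored three weeks later on a 0-5 scale (5 = ≥90% herbicidal ratio, 0 = ≤5%).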

Scirpus juncoides = experiment: as above; settings: Eighteenth Table; application herbicide amount 320 g/ha
Summary of the method: as §2

Monochoria vaginalis = experiment: as above; settings: Eighteenth Table; application herbicide amount 320 g/ha
Summary of the method: as §2

Setaria viridis = experiment: Test Example 4: herbicidal effect by application to foliage (diluvial soil, plastic box); settings: for G (Setaria viridis) herbicidal effect: application to foliage, application herbicide amount 320 g/ha
Summary of the method: as §1

Abutilon theophrasti = experiment: as above; settings: for M (Abutilon theophrasti) herbicidal effect: application to foliage, application herbicide amount 320 g/ha
Summary of the method: as §1

Avena fatua = experiment: as above; settings: for I (Avena fatua) herbicidal effect: application to foliage, application herbicide amount 320 g/ha
Summary of the method: as §1

Alopecurus myosuroides = experiment: as above; settings: for J (Alopecurus myosuroides) herbicidal effect: application to foliage, application herbicide amount 320 g/ha
Summary of the method: as §1

Galium spurium = experiment: as above; settings: for Q (Galium spurium) herbicidal effect: application to foliage, application herbicide amount 320 g/ha
Summary of the method: as §1

Lolium multiflorum Lam. = experiment: as above; settings: for K (Lolium multiflorum Lam.) herbicidal effect: application to foliage, application herbicide amount 320 g/ha
Summary of the method: as §1

Chenopodium album = experiment: as above; settings: for O (Chenopodium album) herbicidal effect: application to foliage, application herbicide amount 320 g/ha
Summary of the method: as §1

[4] = system: Echinochloa crus-galli var. crus-galli; experiment: as above; settings: for H (Echinochloa crus-galli var. crus-galli) herbicidal effect: application to foliage, application herbicide amount 320 g/ha
Summary of the method: as §1

Veronica persica = experiment: as above; settings: for R (Veronica persica) herbicidal effect: application to foliage, application herbicide amount 320 g/ha
Summary of the method: as §1

Digitaria ciliaris = experiment: as above; settings: for F (Digitaria ciliaris) herbicidal effect: application to foliage, application herbicide amount 320 g/ha
Summary of the method: as §1

Apera spica-venti. = experiment: as above; settings: for L (Apera spica-venti.) herbicidal effect: application to foliage, application herbicide amount 320 g/ha
Summary of the method: as §1

[5] = Application herbicide amount 320 g/ha, effect on crop
[6] = Application herbicide amount 320 g/ha

SMILES | A (Echinochloa oryzicola Vasing.) herbicidal ratio grade [3] | B (Scirpus juncoides) herbicidal ratio grade (Scirpus juncoides) | C (Monochoria vaginalis) herbicidal ratio grade (Monochoria vaginalis) | f (Beta vulgaris ssp. vulgaris) effect on crop [1] | b (Zea mays) effect on crop (Zea mays) | c (Glycine max) effect on crop (Glycine max) | d (directly sowed Oryza sativa) effect on crop [2] | g (Brassica campestris L.) effect on crop (Brassica campestris L.) | e (Triticum aestivum) effect on crop (Triticum aestivum) | G (Setaria viridis) herbicidal effect (Setaria viridis) | M (Abutilon theophrasti) herbicidal effect (Abutilon theophrasti) | I (Avena fatua) herbicidal effect (Avena fatua) | J (Alopecurus myosuroides) herbicidal effect (Alopecurus myosuroides) | Q (Galium spurium) herbicidal effect (Galium spurium) | K (Lolium multiflorum Lam.) herbicidal effect (Lolium multiflorum Lam.) | O (Chenopodium album) herbicidal effect (Chenopodium album) | H (Echinochloa crus-galli var. crus-galli) herbicidal effect [4] | R (Veronica persica) herbicidal effect (Veronica persica) | F (Digitaria ciliaris) herbicidal effect (Digitaria ciliaris) | L (Apera spica-venti.) herbicidal effect (Apera spica-venti.) | further results
CC(C)c1nnc2c(C(=O)Nc3nnc(C(F)(F)F)o3)ccc(C(F)(F)F)n12 [1-100] | 4 (Herbicidal ratio of 70% or more and less than 90%) | 3 (Herbicidal ratio of 40% or more and less than 70%) | 4 (Herbicidal ratio of 70% or more and less than 90%) |  |  |  |  |  |  |  |  |  |  |  |  |  |  |  |  |  | f [1, 5]: 3 (Herbicidal ratio of 40% or more and less than 70%); b (Zea mays; [5]): 0 (Herbicidal ratio of 5% or less (almost no effect)); c (Glycine max; [5]): 0 (Herbicidal ratio of 5% or less (almost no effect)); d [2, 5]: 1 (Herbicidal ratio of 5% or more and less than 20%); g (Brassica campestris L.; [5]): 0 (Herbicidal ratio of 5% or less (almost no effect)); e (Triticum aestivum; [5]): 0 (Herbicidal ratio of 5% or less (almost no effect)); G (Setaria viridis; [6]): 1 (Herbicidal ratio of 5% or more and less than 20%); M (Abutilon theophrasti; [6]): 3 (Herbicidal ratio of 40% or more and less than 70%); I (Avena fatua; [6]): 1 (Herbicidal ratio of 5% or more and less than 20%); J (Alopecurus myosuroides; [6]): 0 (Herbicidal ratio of 5% or less (almost no effect)); Q (Galium spurium; [6]): 0 (Herbicidal ratio of 5% or less (almost no effect)); K (Lolium multiflorum Lam.; [6]): 0 (Herbicidal ratio of 5% or less (almost no effect)); O (Chenopodium album; [6]): 5 (Herbicidal ratio of 90% or more (almost completely withered)); H [4, 6]: 4 (Herbicidal ratio of 70% or more and less than 90%); R (Veronica persica; [6]): 1 (Herbicidal ratio of 5% or more and less than 20%); F (Digitaria ciliaris; [6]): 3 (Herbicidal ratio of 40% or more and less than 70%); L (Apera spica-venti.; [6]): 0 (Herbicidal ratio of 5% or less (almost no effect))
Cc1nnc(NC(=O)c2ccc(C(F)(F)F)n3c(COCC(F)(F)F)nnc23)o1 [1-020] | 2 (Herbicidal ratio of 20% or more and less than 40%) | 2 (Herbicidal ratio of 20% or more and less than 40%) | 2 (Herbicidal ratio of 20% or more and less than 40%) | 5 (Herbicidal ratio of 90% or more (almost completely withered)) | 0 (Herbicidal ratio of 5% or less (almost no effect)) | 1 (Herbicidal ratio of 5% or more and less than 20%) | 0 (Herbicidal ratio of 5% or less (almost no effect)) | 3 (Herbicidal ratio of 40% or more and less than 70%) | 1 (Herbicidal ratio of 5% or more and less than 20%) | 3 (Herbicidal ratio of 40% or more and less than 70%) | 2 (Herbicidal ratio of 20% or more and less than 40%) | 1 (Herbicidal ratio of 5% or more and less than 20%) | 1 (Herbicidal ratio of 5% or more and less than 20%) | 3 (Herbicidal ratio of 40% or more and less than 70%) | 1 (Herbicidal ratio of 5% or more and less than 20%) | 5 (Herbicidal ratio of 90% or more (almost completely withered)) | 5 (Herbicidal ratio of 90% or more (almost completely withered)) | 3 (Herbicidal ratio of 40% or more and less than 70%) | 4 (Herbicidal ratio of 70% or more and less than 90%) | 1 (Herbicidal ratio of 5% or more and less than 20%) | 
CCc1nnc(NC(=O)c2ccc(C(F)(F)F)n3c(C(C)C)nnc23)o1 [1-005] | 5 (Herbicidal ratio of 90% or more (almost completely withered)) | 1 (Herbicidal ratio of 5% or more and less than 20%) | 0 (Herbicidal ratio of 5% or less (almost no effect)) | 0 (Herbicidal ratio of 5% or less (almost no effect)) | 0 (Herbicidal ratio of 5% or less (almost no effect)) | 1 (Herbicidal ratio of 5% or more and less than 20%) | 0 (Herbicidal ratio of 5% or less (almost no effect)) | 0 (Herbicidal ratio of 5% or less (almost no effect)) | 0 (Herbicidal ratio of 5% or less (almost no effect)) | 3 (Herbicidal ratio of 40% or more and less than 70%) | 4 (Herbicidal ratio of 70% or more and less than 90%) | 1 (Herbicidal ratio of 5% or more and less than 20%) | 0 (Herbicidal ratio of 5% or less (almost no effect)) | 0 (Herbicidal ratio of 5% or less (almost no effect)) | 0 (Herbicidal ratio of 5% or less (almost no effect)) | 5 (Herbicidal ratio of 90% or more (almost completely withered)) | 4 (Herbicidal ratio of 70% or more and less than 90%) | 3 (Herbicidal ratio of 40% or more and less than 70%) | 3 (Herbicidal ratio of 40% or more and less than 70%) | 0 (Herbicidal ratio of 5% or less (almost no effect)) | 
Cc1nnc(NC(=O)c2ccc(C(F)(F)F)n3c(-c4ccc(Cl)cc4)nnc23)o1 [1-017] | 2 (Herbicidal ratio of 20% or more and less than 40%) | 2 (Herbicidal ratio of 20% or more and less than 40%) | 0 (Herbicidal ratio of 5% or less (almost no effect)) | 5 (Herbicidal ratio of 90% or more (almost completely withered)) | 0 (Herbicidal ratio of 5% or less (almost no effect)) | 0 (Herbicidal ratio of 5% or less (almost no effect)) | 3 (Herbicidal ratio of 40% or more and less than 70%) | 3 (Herbicidal ratio of 40% or more and less than 70%) | 0 (Herbicidal ratio of 5% or less (almost no effect)) | 0 (Herbicidal ratio of 5% or less (almost no effect)) | 5 (Herbicidal ratio of 90% or more (almost completely withered)) | 0 (Herbicidal ratio of 5% or less (almost no effect)) | 0 (Herbicidal ratio of 5% or less (almost no effect)) | 0 (Herbicidal ratio of 5% or less (almost no effect)) | 0 (Herbicidal ratio of 5% or less (almost no effect)) | 5 (Herbicidal ratio of 90% or more (almost completely withered)) | 5 (Herbicidal ratio of 90% or more (almost completely withered)) | 4 (Herbicidal ratio of 70% or more and less than 90%) | 3 (Herbicidal ratio of 40% or more and less than 70%) | 0 (Herbicidal ratio of 5% or less (almost no effect)) | 
